Measurements from patent US20260069694A1, “IDENTIFICATION OF HIGHLY IMMUNOSUPRESIVE TREG POPULATION IN TUMOR MICROENVIRONMENTS” (THE TRUSTEES OF COLUMBIA UNIVERSITY IN THE CITY OF NEW YORK, priority 2023, published 2026).
“Also recorded” adds a separate entry of the source.

What was measured:
metastatic PDAC = conditions: in combination with gemcitabine (Gem) and nab-paclitaxel (Nab-P), phase 1b; cited from earlier work
[1] = test system: Tregs that were expanded in the presence of PDAC cells; assay: FAM-iRGD binding to Tregs expanded with PDAC cells (flow cytometry); set-up: species or system mouse; conditions: flow cytometry MFI
Method: The isolated immune cells were subjected to flow cytometry for quality check and to analyze the cell populations of interest. […] The binding was analyzed by flow cytometry.
CD4+ T cells were magnetically isolated from the spleens of healthy C57B6129SF1/J mice using a mouse CD4+ T cell isolation kit (Miltenyi Biotec™). The CD4+ T cells were cultured for 3 days with or without KPC-derived PDAC cells in the presence of low dose anti-CD3/CD28 beads (×40 dilution; Miltenyi Biotec™), TGF-β1 (5 ng/ml; Bio-Techne Corporation™), and recombinant mouse interleukin-2 (mIL-2, 100 U/ml; Roche™), and subjected to flow cytometry as described elsewhere. In some cases, 1.0 mM iRGD was added to the culture in binding buffer supplemented with mIL-2 to study the effect on apoptosis. The cells were then stained with FITC-conjugated annexin V (BioLegend™) and 7-AAD (BioLegend™) for 15 minutes at room temperature to detect apoptotic cells by flow cytometry.
For the data presented in FIG. 16 through FIG. 19, CD4+ T cells isolated from the spleen of healthy C57B6129SF1/J hybrid mice were expanded for 3 days in vitro in the presence of KPC-derived PDAC cells. Flow cytometry was performed for subsequent analyses. […] The bar diagram summarizes the median fluorescence intensity (MFI) from 4 independent experiments. […] Apoptosis was quantitated by measuring annexin V and 7-AAD double positive cells by flow cytometry (n=3).

[2] = test system: primary PDAC tumors of transgenic KPC mice; assay: Long-term treatment of transgenic KPC mice; IHC/IF of primary PDAC tumors; type: in vivo, mouse; conditions: per high-power field
Method: Long-term treatment studies using combinations of iRGD, Gem, and Nab-P in transgenic KPC mice and subsequent immunohistochemistry (IHC) were performed as previously reported.
For the data presented in FIG. 1, primary PDAC tumors were collected from transgenic KPC mice that received long-term treatment with Gem, iRGD, or iRGD+Gem as part of a previously published survival study. The primary PDAC tumors were immunohistochemically analyzed for the presence of CD8+ T cells.
Primary PDAC tumors were collected from transgenic KPC mice that received long-term treatment with or without Gem, iRGD, or iRGD+Gem as part of a previously published survival study. The presence of Foxp3+ Tregs in the primary PDAC tumors was analyzed by immunofluorescence.

[3] = test system: naïve CD4+ T cells / CD4+CD25+Foxp3+ iTregs; assay: iTreg induction from naive CD4+ T cells in the absence or presence of iRGD or iRGE; type: cell-based, mouse
Method: Naïve CD4^+ T cells and nTregs were isolated from the spleen of healthy C57B6129SF1/J mice by magnetic separation using a mouse CD4+ T cell isolation kit and PE-conjugated anti-mouse CD25 with anti-PE magnetic separation micro beads (Miltenyi Biotec™). The isolated T cells were stimulated with anti-CD3/CD28 beads (×25 dilution; Miltenyi Biotec™) in the presence or absence of recombinant mouse TGF-β1 (5 ng/ml; Bio-Techne™ Corporation) for 3 days. iRGD (100 μM) or iRGE (100 μM) peptide was added to the cultures in some experiments. To study the effect of TGF-β1 on the induction of αvβ5 integrin+ iTregs, naïve CD4+ T cells were cultured with anti-CD3/CD28 beads (x 25 dilution) and TGF-β1 (5 ng/ml) in the presence or absence of varying concentrations of a TGF-βR1 inhibitor (LY2157299; Selleck™ Chemicals LLC). To study the effect of TCR stimulation on the induction of αvβ5 integrin+ iTregs, naïve CD4+ T cells treated with varying concentrations of plate-coated anti-mouse CD3 Ab (eBioscience™) in the presence of soluble anti-mouse CD28 Ab (2 μg/ml) (eBioscience™) and TGF-β1 (5 ng/ml). The cells were subjected to flow cytometry as described elsewhere.
For the data presented in FIG. 31, FIG. 32A, and FIG. 32B, naïve CD4+ T cells were stimulated with anti-CD3/CD28 Abs and TGF-β1 in the absence or presence of iRGD or iRGE. Flow cytometry was performed to quantify the proportion of CD4+CD25+Foxp3+ iTregs (see FIG. 31) and αvβ5 integrin+ cells among the iTregs (See FIG. 32A). Apoptosis of αvβ5 integrin+ iTregs was quantitated by measuring cleaved caspase 3 using flow cytometry (see FIG. 32B; n=3).
To investigate whether iRGD Reduces CD4+CD25+Foxp3+ iTregs in an RGD-Dependent Manner in Vitro, naïve CD4+ T cells were stimulated with anti-CD3/CD28 Abs and TGF-β1 in the absence or presence of the iRGD or iRGE peptide. The resulting cells were subjected to flow cytometry to analyze the expression of CD25 and Foxp3 in the CD4+ T cells (FIG. 33A) and the expression of the αvβ5 integrin and NRP-1 on CD4+CD25+Foxp3+ iTregs (FIG. 33B). The bar diagram in (FIG. 33C) summarizes the proportion of NRP-1+ cells among the iTregs. The statistical analysis used was the one-way ANOVA; p=0.8221. n=3 per group.
The proportion of apoptotic αvβ5 integrin+ iTregs (FIG. 34) and CD4+Foxp3neg T cells (FIG. 35) was quantitated by measuring cleaved caspase 3 using flow cytometry. The statistical analysis used was Welch's t test; p=0.0705 (n=3). The dot plots and histograms of FIG. 33C and FIG. 35 show representative data from the 3 independent experiments. The error bars indicate the mean±standard error; N.S., not significant.

[4] = peptide 100 μM, anti-CD3/CD28 Abs and TGF-β1

## CRGDKGPDC [iRGD]
Metastatic PDAC
  efficacy against metastatic PDAC: promising preliminary efficacy
[1]
  binding to αvβ5 integrin+ Tregs induced in the presence of PDAC cells: Binds
[2]; IHC, long-term treatment
  number of CD8+ T cells in the PDAC tissue: increased the number of CD8+ T cells
[2]; immunofluorescence, compared to the other arms
  PDAC-resident cells expressing Foxp3 (Foxp3+ Tregs): less PDAC-resident cells expressing Foxp3
[3]; flow cytometry
  apoptosis of CD4+Foxp3neg T cells (cleaved caspase 3): Neither iRGD nor iRGE increased the apoptosis
  apoptosis of αvβ5 integrin+ Tregs (cleaved caspase 3): induces apoptosis of αvβ5 integrin^+ Tregs in an RGD-dependent manner; also recorded: increased apoptosis
[3]; peptide 100 μM
  proportion of NRP-1-positive iTregs: did not alter the proportion
[3]; [4]
  proportion of CD4+CD25+Foxp3+ iTregs: reduction
  αvβ5 integrin-positive population among the iTregs: reduction
